Measured values from article PMC11503492, “Activity-Based DNA-Encoded Library Screening for Selective Inhibitors of Eukaryotic Translation” (ACS Central Science, 2024).

What was measured:
[1] = test system: PCSK9-FS[1:33]-GFP translation; assay: WG IVTT microplate activity assay, PCSK9-FS[1:33]-GFP frameshift counter template; format: biochemical, wheat germ
Description: (§1) A commercially available wheat germ lysate (WG) IVTT system was employed to assay translation inhibition. Translation activity was detected via a GFP reporter, and the assay was miniaturized to picoliter-scale microfluidic droplets (Figure 1A,B). […] PCSK9 and RPL27 were truncated to the first 33 and 32 amino acids, respectively (PCSK9[1:33] and RPL27[1:32]). The sequences contain distinct PF846 stall sites and were both fused to a GFP reporter. The GFP reporter and a frameshift mutant of PCSK9[1:33] (PCSK9-FS[1:33]), which mutates the nascent chain sequence while maintaining a nearly identical mRNA sequence, were included as negative controls.[13] […] Sequence sensitivity was further confirmed by an N-terminal deletion series of PCSK9[1:33]-GFP; deletion of N-terminal residues increasingly ablated PCSK9[1:33]-GFP translation sensitivity to PF846 (Figure 1D). The WG IVTT assay was miniaturized using a previously described microfluidic circuit modified for longer incubation times (Figure S1)[27] using PF846 as a positive control compound, and assay statistical quality was calculated (Z′=0.7) (Figure 1E). To confirm detection of translation inhibition from library beads, hygromycin B, a nonselective aminoglycoside translation inhibitor, was coupled to beads displaying a photocleavable linker (PC-HygB). UV irradiation releases hygromycin from the bead, allowing it to interact with the WG IVTT assay in the droplet. PC-HygB bead photocleavage supernatant inhibited PCSK9[1:33]-GFP translation both in a microplate assay and in microfluidic droplets (Figure 1F,G, S2). Assay statistical quality using PC-HygB positive control beads was similarly calculated (Z′ = 0.75, Figure 1H). […]
(§2) 436 Microplate IVTT Assays
(§3) 437 Wheat germ lysate IVTT plate assays were prepared as 5 µL reactions. Wheat germ lysate
(§4) 438 (3 µL) was added to test compound or vehicle control (1 µL) in a 384-well black microplate
(§5) 439 and the reaction was incubated (10 min, RT). Template (1 µL) was added and reaction
(§6) 440 progress was immediately monitored (λex = 480 nm, λem = 530 nm, 27 °C, 2 h). Rela-
(§7) 441 tive activity was calculated using the slope of fluorescence increase over time (at 15–30
(§8) 442 min post reaction initiation) for compound samples relative to that of the DMSO vehicle
443 control. All microplate experiments contained 25 ng/µL plasmid, except for assays with
445 respectively. HeLa lysate IVTT plate assays were prepared as 5.5 µL reactions. […]

[2] = test system: PCSK9 expression in HepG2 cells; assay: HepG2 cellular assay, PCSK9 Western blot; format: cell-based; conditions: 16 h treatment, 5 or 50 µM, triplicate, normalized to DMSO
Procedure: Reaction buffer (1 µL) and template (0.5 µL) were added and reaction progress was
Relative activity was cal-
450 culated using the slope of fluorescence increase over time (15–30 min post reaction initia-
Gene blocks were purchased from IDT
Digestion with Sgf I and PmeI allowed for
Sequence-verified plasmids
460 were cloned into DH5α E. coli for standard large-scale DNA plasmid preparation.
Gene blocks were purchased
Digestion with NdeI and XhoI
470 (4.5 g/L high-glucose DMEM, 2 mM L-glutamine, 10% fetal bovine serum, 1% penicillin-
Cells were lysed (100 µL RIPA buffer,
Protein lysates (24 µg) were separated by denaturing polyacrylamide
480 PCSK9 rabbit monoclonal antibody, 5% BSA in PBS-T). The PCSK9 probed membrane
HRP-labeled bands were visualized
Figure S12. […] PCSK9 expression in HepG2 cells
treated 16 h with PF846 or screening hit 8 (5 or 50 µM) or vehicle control (DMSO) was analyzed in triplicate
(also on this page, place not known: S12894 GAPDH pro m DMSO 5 μM DMSO μM 5 μM 50 μM PCSK9 PF846 hit8 50)
(1 picture or pasted object on this page, not shown here)

[3] = test system: MST1[1:39]-GFP translation; set-up: method as in PMID 28323820; conditions: cited from earlier work
[4] = test system: RPL27[1:32]-GFP translation; assay: WG IVTT activity assay, RPL27[1:32]-GFP template; format: biochemical, wheat germ
Description: A commercially available wheat germ lysate (WG) IVTT system was employed to assay translation inhibition. Translation activity was detected via a GFP reporter, and the assay was miniaturized to picoliter-scale microfluidic droplets (Figure 1A,B). […] PCSK9 and RPL27 were truncated to the first 33 and 32 amino acids, respectively (PCSK9[1:33] and RPL27[1:32]). The sequences contain distinct PF846 stall sites and were both fused to a GFP reporter. The GFP reporter and a frameshift mutant of PCSK9[1:33] (PCSK9-FS[1:33]), which mutates the nascent chain sequence while maintaining a nearly identical mRNA sequence, were included as negative controls.[13] […] The WG IVTT assay was miniaturized using a previously described microfluidic circuit modified for longer incubation times (Figure S1)[27] using PF846 as a positive control compound, and assay statistical quality was calculated (Z′=0.7) (Figure 1E). […] Assay statistical quality using PC-HygB positive control beads was similarly calculated (Z′ = 0.75, Figure 1H). […]
429 of encoding region identifiers was then determined using a UMI aggregation algorithm; […]
433 manually determined threshold (10) were discarded. […]
(§9) 440 progress was immediately monitored (λex = 480 nm, λem = 530 nm, 27 °C, 2 h). […]
(§10) 441 tive activity was calculated using the slope of fluorescence increase over time (at 15–30 […]
Figure S11. […] Compound 8 (black) and PF846 (gray) were analyzed […]

[5] = test system: PCSK9[1:33]-GFP N-terminal deletions; assay: WG IVTT end point assay of PCSK9[1:33]-GFP N-terminal deletions; format: biochemical, wheat germ; conditions: deletion of 15 or more N-terminal residues, 100 μM PF846
Procedure: (C) PF846 dose–response IVTT activity assays of PCSK9[1:33]-GFP, PCSK9-FS[1:33]-GFP, RPL27[1:32]-GFP, and the GFP reporters and (D) end point assays (100 μM PF846) of PCSK9[1:33]-GFP N-terminal deletions were conducted to determine sensitivity to PF846 in WG IVTT (% activity relative to DMSO control).

[6] = test system: GFP reporter translation; assay: WG IVTT activity assay, GFP reporter control; format: biochemical, wheat germ; conditions: negative control
Description: A commercially available wheat germ lysate (WG) IVTT system was employed to assay translation inhibition. Translation activity was detected via a GFP reporter, and the assay was miniaturized to picoliter-scale microfluidic droplets (Figure 1A,B). […] PCSK9 and RPL27 were truncated to the first 33 and 32 amino acids, respectively (PCSK9[1:33] and RPL27[1:32]). The sequences contain distinct PF846 stall sites and were both fused to a GFP reporter. The GFP reporter and a frameshift mutant of PCSK9[1:33] (PCSK9-FS[1:33]), which mutates the nascent chain sequence while maintaining a nearly identical mRNA sequence, were included as negative controls.[13] […] Sequence sensitivity was further confirmed by an N-terminal deletion series of PCSK9[1:33]-GFP; deletion of N-terminal residues increasingly ablated PCSK9[1:33]-GFP translation sensitivity to PF846 (Figure 1D). The WG IVTT assay was miniaturized using a previously described microfluidic circuit modified for longer incubation times (Figure S1)[27] using PF846 as a positive control compound, and assay statistical quality was calculated (Z′=0.7) (Figure 1E). […] Assay statistical quality using PC-HygB positive control beads was similarly calculated (Z′ = 0.75, Figure 1H). […]
as §9, §10

[7] = test system: PCSK9[1:33]-GFP translation; assay: Wheat germ lysate (WG) IVTT microplate activity assay, PCSK9[1:33]-GFP template; format: biochemical; conditions: WG IVTT
Description: as §1, §2, §3, §4, §5, §6, §7, §8
443 control. […]

**Q.** Which results are given for `O=C(c1ccc(-n2nnc3cccnc32)cc1)N(c1ncccc1Cl)[C@@H]1CCCNC1` [PF846, PF-06446846, reference compound]?
**A.** IC50 ([1]; PCSK9-FS[1:33]-GFP template, triplicate, undetectable IC50 marked >300): > 300 µM; activity on PCSK9-FS[1:33]-GFP translation (in words) ([1]; frameshift control): did not affect the translation; PCSK9 protein levels in HepG2 cells (in words) [2]: significantly reduced; relative potency on MST1[1:39]-GFP versus PCSK9[1:33]-GFP and RPL27[1:32]-GFP translation (in words) [3]: more potently inhibits; activity on RPL27[1:32]-GFP translation (in words) [4]: inhibited the translation; PF846 activity on N-terminal deletions of PCSK9[1:33]-GFP (in words) [5]: completely eliminates PF846 activity; activity on GFP reporter control translation (in words) [6]: did not affect the translation; inhibition of PCSK9[1:33]-GFP translation (in words) [7]: inhibited the translation; IC50 ([7]; PCSK9[1:33]-GFP template, triplicate, ± standard deviation of the mean): 3.9 ± 0.8 µM
